# Results taken from patent publication US11078157B1, “Compound embodiments that release H2S by reaction with a reactive compound and methods of making and using the same” (University of Oregon, priority 2018, dated 2021).
# “Also recorded” adds a separate entry of the source.
# Key:
# [1] = Reaction product analysis (preparative isolation and HPLC); assay type: physicochemical; conditions: preparative scale reaction, not further hydrolyzed to N-benzoyl-L-cysteine
# Description: Compound 604a (0.39 mmol, 1.0 equivalents) was dissolved in 15 mL of 2:1 THF/PBS (10 mM, pH 7.4). L-cysteine methyl ester hydrochloride (1.17 mmol, 3.0 equivalents) was added in a single portion and stirred at room temperature for 2 hours. The reaction mixture was diluted with deionized H2O (˜20 mL) and extracted with CH2Cl2 (3×20 mL). The combined organic extracts were washed with brine and dried over MgSO4. After filtration, the solvent was removed under reduced pressure, and the purified by preparative thin layer chromatography (1:1 CH2Cl2 in hexanes). Compound 604a Rf=0.75 (63.6 mg, 76%) and CysDHT Rf=0.03 (11.0 mg, 13%) were isolated and characterized by ^1H and ^13C{^1H} NMR spectroscopy. The significant recovery of compound 604a is likely due to the lack of buffering capacity in the preparative-scale reaction.
# To a 20 mL solution of 10% THF in PBS (10 mM, pH 7.4) containing 2 mM L-cysteine methyl ester (20 equivalents), 20 μL of 100 mM compound 604a in THF was added and stirred at room temperature. After 1 hour, a 1 mL reaction aliquot was analyzed by HPLC. HPLC analysis was performed on an Agilent 1260 HPLC instrument with a Poroshell 120 EC-C18 4.6×100 mm column and monitored at 280 nm. […] The concentration of CysDHT and phenol present at the end of the reaction were determined by measurement against calibration curves for each compound (see FIG. 4). […]
# [2] = H2S release via methylene blue assay (MBA); assay type: physicochemical; conditions: for H2S release in the presence of cysteine: 25 μM compound, cysteine 500 μM (20 equiv.); for H2S release on treatment with GSH: 500 μM GSH; for H2S release on treatment with cysteine methyl ester: 500 μM cysteine methyl ester, compared with cysteine; for entropy of activation (ΔS‡), Eyring analysis: varied temperature; for H2S release on treatment with homocysteine: 500 μM homocysteine; for H2S release on treatment with penicillamine: 500 μM penicillamine; for H2S release in the absence of added nucleophiles (hydrolysis): H2O/PBS, physiological pH; for H2S release on co-incubation with cysteine and GSH: cysteine 500 μM + GSH 1 mM, compared with cysteine alone; for second-order rate constant (k2) of cysteine-triggered H2S release: cysteine 250-1250 μM, pseudo-first order conditions, plot of [Cys] vs kobs; for dependence of H2S release on cysteine concentration: increasing cysteine concentrations; for reaction order in cysteine: plot of log[Cys] versus log(kobs); for H2S release / rate of H2S release, effect of alkyl functionalization: dithioesters 25 μM, cysteine 500 μM (20 equivalents), relative to compound 506a
# Description: H2S Detection Materials and Methods—Phosphate buffered saline (PBS) tablets (1×, CalBioChem) were used to prepare buffered solutions (140 mM NaCl, 3 mM KCl, 10 mM phosphate, pH 7.4) in deionized water. Buffer solutions were sparged with N2 to remove dissolved oxygen and stored in an N2-filled glovebox. Donor stock solutions (in DMSO) were prepared inside an N2-filled glovebox and stored at −25° C. until immediately before use. Trigger stock solutions (in PBS) were freshly prepared in an N2-filled glovebox immediately before use.
# General Procedure for Measuring H2S Release via Methylene Blue Assay (MBA)—Scintillation vials containing 20 mL of PBS were prepared in an N2-filled glovebox. To these solutions, 20 μL of 500 mM analyte stock solution (in PBS) was added for a final concentration of 500 μM. While stirring, the solutions were allowed to thermally equilibrate in heating block at the desired temperature for approximately 20-30 minutes. Immediately prior to donor addition, 0.5 mL solution of the methylene blue cocktail were prepared in disposable 1.5 mL cuvettes. The methylene blue cocktail solution contained: 200 μL of 30 mM FeCl3 in 1.2 M HCl, 200 μL of 20 mM N,N-dimethyl-p-phenylene diamine in 7.2 M HCl, and 100 μL of 1% (w/v) Zn(OAc)2. […] At set time points after the addition of donor, 500 μL reaction aliquots were added to the methylene blue cocktail solutions and incubated for 1 hour at room temperature shielded from light. Absorbance values at 670 nm were measured 1 hour after addition of reaction aliquot. Each experiment was performed in quadruplicate unless stated otherwise.
# MBA Calibration Curve—Solutions containing 0.5 mL of the methylene blue cocktail and 0.5 mL PBS containing 500 μM cysteine were freshly prepared in disposable cuvettes (1.5 mL). Under inert conditions, a 10 mM stock solution of NaSH (Strem Chemicals) in PBS was prepared and diluted to 1 mM. Immediately after dilution, 1 mM NaSH was added to 1.0 mL solutions for final concentrations of 10, 20, 30, 40, and 50 μM. Solutions were mixed thoroughly, incubated at room temperature for 1 hour, and shielded from light. Absorbance values at 670 nm were measured after 1 hour.
# In this example, the released H2S was measured and quantified using the methylene blue assay for H2S. In a typical use of this assay, aliquots from a reaction mixture with the H2S donor and cysteine are treated with 0.5 mL of a methylene blue assay mixture containing 0.1 mL zinc acetate (1% w/v), 0.2 mL FeCl3 (30 mM in 1.2 M HCl), and 0.2 mL N,N-dimethyl-p-phenylene diamine (20 mM in 7.2 M HCl)). After incubation for 1 hour, the absorbance at 670 nm is measured and converted to a H2S concentration by using the H2S calibration curve. To assess the H2S-releasing efficiency from the compound embodiments, a methylene blue calibration curve was used to quantify the H2S release (FIG. 2).
# [3] = pKa and thiolate fraction of thiol triggers (literature); assay type: physicochemical; conditions: under physiological conditions
# [4] = thiol; cited from earlier work
# [5] = 25 μM donor, cysteine, after 1 hour
structure (smiles),measurement,setting,value
"COC(=O)C1CSC(c2ccccc2)=N1 (stereo not shown) [CysDHT, Methyl 2-phenyl-4,5-dihydrothiazole-4-carboxylate]",stability of dihydrothiazole under aqueous conditions,[1],stable under aqueous conditions
"O=C(Sc1ccccc1)c1ccccc1 [S-phenyl benzothioate, reference compound]",H2S release in the presence of cysteine,[2],lack of H2S release; also recorded: Neither of these compounds released H2S
S=C(Sc1ccccc1)c1ccccc1 [compound 506a],H2S release on treatment with GSH,[2]; 25 μM donor,a significant H2S release was not observed
same,H2S release on treatment with cysteine methyl ester,[2]; 25 μM donor,did not affect H2S release
same,"entropy of activation (ΔS‡), Eyring analysis","[2]; 25 μM donor, 500 μM cysteine",−23±1 eu
same,H2S release on treatment with homocysteine,[2]; 25 μM donor,a reduction in the H2S release rate
same,H2S release on treatment with penicillamine,[2]; 25 μM donor,significant H2S release was not observed
same,H2S release in the absence of added nucleophiles (hydrolysis),[2]; 25 μM donor,H2S release was not observed
same,H2S release on co-incubation with cysteine and GSH,[2]; 25 μM donor,Minimal change on the cysteine-triggered H2S release
same,second-order rate constant (k2) of cysteine-triggered H2S release,[2]; 25 μM donor,1.8 ± 0.1 M⁻¹ s⁻¹
same,H2S released after 1 hour,[2]; [5],approximately 17 μM
same,H2S releasing efficiency,[2]; [5],~68%
same,dependence of H2S release on cysteine concentration,[2]; 25 μM donor,Increasing amounts of H2S released with increasing cysteine concentrations
same,H2S release with cysteine derivatives having masked thiol or amine,"[2]; 25 μM donor, thiol or amine moiety of cysteine masked",reduced H2S release
same,experimentally-observed ΔH‡,"[2]; Eyring analysis, 25 μM donor, 500 μM cysteine",14.4 kcal/mol
same,reaction order in cysteine,[2],first order in cysteine
CC(=S)Sc1ccccc1 [compound 506b],"H2S release / rate of H2S release, effect of alkyl functionalization",[2],enhanced rates of H2S release
CC(C)C(=S)Sc1ccccc1 [compound 506c],"H2S release / rate of H2S release, effect of alkyl functionalization",[2],enhanced rates of H2S release
S=C(SCc1ccccc1)c1ccccc1 [compound 506d],"H2S release / rate of H2S release, effect of alkyl functionalization",[2],minimal H2S release
CC(=S)SCc1ccccc1 [compound 506e],"H2S release / rate of H2S release, effect of alkyl functionalization",[2],H2S release was observed
CC(C)C(=S)SCc1ccccc1 [compound 506f],"H2S release / rate of H2S release, effect of alkyl functionalization",[2],relatively slow H2S release
"S=C(Oc1ccccc1)c1ccccc1 [compound 604a, O-Phenyl benzothioate]",H2S release in the presence of cysteine,[2],result in H2S release
same,H2S release on treatment with GSH,[2]; 25 μM donor,does not result in H2S release; also recorded: did not generate H2S
same,H2S release on treatment with N-acetylcysteine,"[2]; 25 μM donor, 500 μM N-acetylcysteine","did not, in H2S release"
same,H2S release on treatment with N-acetylcysteine methyl ester,"[2]; 25 μM donor, 500 μM N-acetylcysteine methyl ester","did not, in H2S release"
same,H2S release on treatment with S-methylcysteine,"[2]; 25 μM donor, 500 μM S-methylcysteine","did not, in H2S release"
same,H2S releasing efficiency,"[2]; 25 μM donor, 500 μM cysteine (20 equivalents)",80%
same,H2S release on treatment with cysteine methyl ester,[2]; 25 μM donor,did not affect H2S production
same,"entropy of activation (ΔS‡), Eyring analysis","[2]; 25 μM donor, 500 μM cysteine",−38±3 eu
same,H2S release on treatment with homocysteine,[2]; 25 μM donor,"result in H2S release; also recorded: resulted in H2S release, although at a slower rate than from treatment with cysteine"
same,H2S release on treatment with lysine,"[2]; 25 μM donor, 500 μM lysine",did not result in H2S release
same,H2S release on treatment with penicillamine,[2]; 25 μM donor,result in H2S release
same,H2S release on treatment with serine,"[2]; 25 μM donor, 500 μM serine",did not result in H2S release
same,H2S release in the absence of added nucleophiles (hydrolysis),[2]; 25 μM donor,no hydrolysis-mediated H2S release was observed
same,H2S release on treatment with porcine liver esterase (PLE),"[2]; 25 μM donor, PLE 1.0 U/mL",H2S generation was not observed
same,H2S release on co-incubation with cysteine and GSH,[2]; 25 μM donor,"results in H2S release, albeit at a slower rate than with Cys alone; also recorded: a reduced rate of H2S release was observed"
same,Cysteine-triggered H2S release in the presence of lysine,"[2]; 25 μM donor, cysteine 500 μM + lysine 500 μM",no change in H2S releasing-efficiency was observed
same,second-order rate constant (k2) of cysteine-triggered H2S release,[2]; 25 μM donor,9.1 ± 0.3 M⁻¹ s⁻¹
same,dependence of H2S release on cysteine concentration,[2]; 25 μM donor,dose-dependent release of H2S; also recorded: Increased cysteine concentrations led to increased rates of H2S production
same,H2S released,"[2]; 25 μM solution of donor, 500 μM cysteine (20 equivalents)",20 µM
same,reaction order in cysteine,[2],first-order dependence in cysteine
N[C@@H](CS)C(=O)O [cysteine],effective concentration of thiolate,[3],~10%
same,pKa,[4],~8.5
N[C@@H](CCS)C(=O)O [homocysteine],effective concentration of thiolate,[3],~0.03%
same,pKa,[4],~10
"O=C(Oc1ccccc1)c1ccccc1 [phenyl benzoate, reference compound]",H2S release in the presence of cysteine,[2],lack of H2S release; also recorded: Neither of these compounds released H2S
